{"source": "patent EP4140481A1", "about": "“PROTEIN-OLIGOMER BINDING AGENTS AND THERAPEUTIC USES THEREOF” (Galyan Bio, Inc., priority 2021, dated 2023)", "key": {"Exon1 Q46": {"molecular_target": "Exon1 Q46 (Homo sapiens, UniProt P42858, INS38QQQQQQQQQQQQQQQQQQQQQQQQQ)", "sequence (P42858 with tags, fused parts or gaps with the stated changes)": "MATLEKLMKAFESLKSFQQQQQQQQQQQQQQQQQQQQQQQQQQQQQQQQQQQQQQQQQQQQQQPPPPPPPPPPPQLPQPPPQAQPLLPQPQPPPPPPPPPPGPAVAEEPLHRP", "assay": "Circular dichroism study", "assay_type": "binding", "protocol": "Protein samples were diluted with buffer to 7.5 µM prior to Circular Dichroism (CD) measurements. Measurements were conducted at room temperature.\nFour spectra at each measurement were taken every 1 nm from 200 to 260 nm, scanning at 50 nm/min with an averaging time of 1 sec. Spectra were obtained from samples in 20 mM phosphate, pH 7.4. Ten scans were averaged for each sample spectrum\nSingle-wavelength readings at 222 nm were obtained. After subtraction of the Trx contribution, the α-helical content of Httex1 was estimated from its mean residue ellipticity (MREHttex1) at 222 nm. This calculation was conducted as described by Bravo-Arredondo (Bravo-Arredondo, J.M. et al., J Biol Chem. 2018 Dec 21;293(51):19613-19623).\nMRE Exon-1 Q16 and Q46 (Mean Residue Ellipticity) was measured every 1 sec for 300 sec; the 301 readings for each sample were averaged and MRE Trx subtracted. The number of amino acids in each sample to experience a change in helicity was estimated using a previously developed helix-coil transition model, which gave the change in fraction of helicity (ΔfHelix) by the following equation: fHelix = (MREHttex1 −MRECoil)/(MREHelix −MRECoil) [formula] where MRE Exon1 Q26 or Q46 (MREHttex1 in the formula) describes the helix-coil transition, obtained from the difference between MRE Eon1 Q26 or Q46 at 222 nm of the fusion protein at the given temperature (in our case 37 °C) and the product of MRE Trx at 222 nm at the same temperature and the fraction of residues comprised by Trx in that particular construct, and MRECoil = 2220−53T,MREHelix =; (−44,000+250T)(1−(3)/(Nr)) [formula] given T as the temperature in °C and Nr as the number of residues.\nIn order to calculate an equilibrium of the two states model, percent α-helicity was calculated using the relation of MREHttex1 = 0 and -34700 (deg cm^2 dmol^-1) for 0% and 100% helicity, respectively. Table 14: Comparison between Kd, reversal of conformational changes of Exon1 Q46 and reduction of mHTT in comparison to untreated striatal neurons\nThe CD measurements protocol for Compound 101 was the same as outlined above except that from 206 nm - 210 nm and 220 nm - 224 nm, the step size was 0.2 nm, and the bandwidth was 1nm."}, "Kinetic solubility": {"assay": "Kinetic solubility", "assay_type": "physicochemical", "settings": "kinetic from dmso stock"}, "mHTT": {"molecular_target": "T1, mHTT (Homo sapiens, UniProt P42858)", "T1 construct": "host or cells: ST HDH Q111/111 mouse striatal cell line (knock-in locus)", "T1 sequence (P42858 with tags, fused parts or gaps with the stated changes)": "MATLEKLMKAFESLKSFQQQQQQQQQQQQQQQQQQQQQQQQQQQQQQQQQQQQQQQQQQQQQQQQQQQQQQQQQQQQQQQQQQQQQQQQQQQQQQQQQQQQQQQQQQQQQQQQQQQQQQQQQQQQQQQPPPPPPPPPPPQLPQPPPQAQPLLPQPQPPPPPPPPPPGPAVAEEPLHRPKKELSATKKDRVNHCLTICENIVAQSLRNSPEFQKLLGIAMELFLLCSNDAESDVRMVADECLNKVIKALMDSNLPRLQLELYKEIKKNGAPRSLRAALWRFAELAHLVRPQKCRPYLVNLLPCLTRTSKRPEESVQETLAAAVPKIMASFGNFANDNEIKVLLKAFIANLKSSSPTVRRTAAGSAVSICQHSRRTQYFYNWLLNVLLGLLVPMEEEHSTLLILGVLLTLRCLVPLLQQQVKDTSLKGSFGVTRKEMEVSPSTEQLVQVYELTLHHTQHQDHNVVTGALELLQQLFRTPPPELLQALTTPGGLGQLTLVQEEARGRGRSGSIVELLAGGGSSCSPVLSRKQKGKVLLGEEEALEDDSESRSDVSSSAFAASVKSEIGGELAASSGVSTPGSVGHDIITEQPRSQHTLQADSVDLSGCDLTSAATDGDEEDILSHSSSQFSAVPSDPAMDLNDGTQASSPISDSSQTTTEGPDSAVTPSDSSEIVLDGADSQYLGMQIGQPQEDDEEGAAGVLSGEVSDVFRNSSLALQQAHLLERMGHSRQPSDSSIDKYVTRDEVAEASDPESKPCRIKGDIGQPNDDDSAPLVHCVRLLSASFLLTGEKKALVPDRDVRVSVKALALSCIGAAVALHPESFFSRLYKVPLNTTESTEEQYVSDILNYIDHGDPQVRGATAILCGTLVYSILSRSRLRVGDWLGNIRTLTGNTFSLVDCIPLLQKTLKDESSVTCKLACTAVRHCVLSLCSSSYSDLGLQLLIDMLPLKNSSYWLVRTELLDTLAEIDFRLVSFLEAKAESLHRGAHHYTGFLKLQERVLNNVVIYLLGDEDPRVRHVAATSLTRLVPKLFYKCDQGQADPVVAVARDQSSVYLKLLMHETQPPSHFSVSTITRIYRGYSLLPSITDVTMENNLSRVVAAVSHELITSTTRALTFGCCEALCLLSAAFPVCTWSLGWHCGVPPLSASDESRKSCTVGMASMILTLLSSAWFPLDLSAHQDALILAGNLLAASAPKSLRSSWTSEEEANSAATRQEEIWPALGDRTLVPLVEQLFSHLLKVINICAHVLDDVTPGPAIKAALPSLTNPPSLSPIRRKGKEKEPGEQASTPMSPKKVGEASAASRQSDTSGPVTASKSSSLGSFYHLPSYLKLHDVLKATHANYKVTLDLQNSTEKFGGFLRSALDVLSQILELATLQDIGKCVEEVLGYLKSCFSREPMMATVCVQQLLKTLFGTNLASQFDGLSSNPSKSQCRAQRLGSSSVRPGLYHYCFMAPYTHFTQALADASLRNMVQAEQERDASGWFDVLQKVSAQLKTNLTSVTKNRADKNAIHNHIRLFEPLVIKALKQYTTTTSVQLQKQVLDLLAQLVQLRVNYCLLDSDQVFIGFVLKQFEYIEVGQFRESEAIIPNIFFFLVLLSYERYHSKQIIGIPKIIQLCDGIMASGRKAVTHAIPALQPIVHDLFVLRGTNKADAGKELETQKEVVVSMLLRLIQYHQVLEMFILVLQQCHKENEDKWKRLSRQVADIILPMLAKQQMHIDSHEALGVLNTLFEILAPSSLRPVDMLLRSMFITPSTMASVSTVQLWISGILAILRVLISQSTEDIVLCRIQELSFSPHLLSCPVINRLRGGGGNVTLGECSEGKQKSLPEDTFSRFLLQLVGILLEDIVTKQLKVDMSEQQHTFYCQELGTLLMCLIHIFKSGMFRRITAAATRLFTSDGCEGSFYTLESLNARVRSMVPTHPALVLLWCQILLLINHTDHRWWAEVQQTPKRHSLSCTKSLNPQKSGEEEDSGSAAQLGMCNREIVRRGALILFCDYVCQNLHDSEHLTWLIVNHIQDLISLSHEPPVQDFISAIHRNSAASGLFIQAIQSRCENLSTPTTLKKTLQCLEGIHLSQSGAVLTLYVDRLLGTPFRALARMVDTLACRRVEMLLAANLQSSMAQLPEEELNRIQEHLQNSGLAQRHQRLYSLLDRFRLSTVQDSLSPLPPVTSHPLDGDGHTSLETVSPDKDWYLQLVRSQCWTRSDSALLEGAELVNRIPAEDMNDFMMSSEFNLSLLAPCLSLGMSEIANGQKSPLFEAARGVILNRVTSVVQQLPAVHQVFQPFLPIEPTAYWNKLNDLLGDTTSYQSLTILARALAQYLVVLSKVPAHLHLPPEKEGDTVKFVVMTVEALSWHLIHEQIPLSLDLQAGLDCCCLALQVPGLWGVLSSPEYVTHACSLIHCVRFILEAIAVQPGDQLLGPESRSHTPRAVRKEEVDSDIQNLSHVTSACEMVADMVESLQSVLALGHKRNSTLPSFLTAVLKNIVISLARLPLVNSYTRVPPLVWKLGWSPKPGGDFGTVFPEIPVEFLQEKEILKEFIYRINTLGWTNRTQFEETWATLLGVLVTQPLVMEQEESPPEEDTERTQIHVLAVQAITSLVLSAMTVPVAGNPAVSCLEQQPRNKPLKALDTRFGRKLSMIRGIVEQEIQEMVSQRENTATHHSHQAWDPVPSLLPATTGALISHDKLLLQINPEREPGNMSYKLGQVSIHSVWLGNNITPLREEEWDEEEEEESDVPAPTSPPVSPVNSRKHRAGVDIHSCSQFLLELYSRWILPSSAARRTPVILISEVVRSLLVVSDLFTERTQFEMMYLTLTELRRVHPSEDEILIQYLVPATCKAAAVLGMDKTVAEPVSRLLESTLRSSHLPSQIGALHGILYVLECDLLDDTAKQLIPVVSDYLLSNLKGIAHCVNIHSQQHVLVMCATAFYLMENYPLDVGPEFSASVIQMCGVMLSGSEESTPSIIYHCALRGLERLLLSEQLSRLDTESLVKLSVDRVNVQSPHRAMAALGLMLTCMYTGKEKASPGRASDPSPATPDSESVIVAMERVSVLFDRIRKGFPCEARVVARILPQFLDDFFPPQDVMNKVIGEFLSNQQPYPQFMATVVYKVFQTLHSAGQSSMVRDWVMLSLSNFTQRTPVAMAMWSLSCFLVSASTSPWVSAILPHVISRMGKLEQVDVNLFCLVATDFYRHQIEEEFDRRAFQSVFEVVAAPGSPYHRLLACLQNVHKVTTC", "assay": "mHTT levels in striatal cells (immunocytochemistry)", "assay_type": "cell-based, mouse", "settings": "for mHTT after 3 h heat shock and following 48 hours of compound treatment in comparison to untreated STHdh 111/111 / remaining activity at 10 µM: STHdh 111/111; for remaining activity at 10 µM: 3 hours heat shock, 48 hours treatment, percentage in comparison to untreated STHdh 111/111, 3B5H10 antibody, read-out: mHTT after treatment", "protocol": "(§1) Staining - Cells were permeabilized with 0.3% Triton X-100 in 4 °C PBS (pH 7.4 from ThermoFisher) for 10 minutes. Then the cells were washed two times with 4 °C PBS. Subsequently, cells are blocked with 3% NGS (normal goat serum from Thermo Fisher) in 4 ° C PBS for 1 hour. Cells were incubated with primary antibodies in blocking buffer (PBS, 3% NGS, 0.02% NaN3) over night at 4 °C. Primary antibodies were mouse antipolyglutamine monoclonal antibody 3B5H10 (Sigma-Aldrich) at 1:250 dilution and Guinea Pig anti-MAP2 polyclonal antibody (Synaptic Systems) at 1:500 dilution. 3B5H10 binds to diffuse mHTT. Diffuse mHTT is a monomeric and small oligomeric mHTT. Diffuse mHTT is correlated to pathological parameters in Huntington's disease. Compounds that bind the mHTT will reduce the levels of diffuse mHTT detected.\nCells were washed 2 times with 4 °C PBS, and then incubated with secondary antibodies at 1:2000 dilution in blocking buffer for 1hour at room temperature. […] Cells were washed 2 times with 4 °C PBS, and then the nuclei were counterstain with DAPI (ThermoFisher) for 10 min at room temperature in the dark. Cells were washed 2 times with 4 °C PBS, and then 4 °C PBS was added to cells and then images were acquired. […] Table 11: Antibodies Used in Immunocytochemistry Studies\nFluorescence Imaging - Imaging sessions were performed on a confocal microscope system (Carl Zeiss Microscopy) equipped with a dual spinning disk unit (Yokogawa). All components of the imaging system were controlled via the ZEN 2 software suite (Carl Zeiss Microscopy). The laser lines used were 405 nm, 488 nm and 639 nm to excite DAPI or the respective fluorophores. […] Nested t test was performed to calculate the significance amongst repeated measurements using GraphPad Prism software.\nas §1, with “For LC3 staining primary antibodies were mouse anti-LC3 mab (5F10) (nanoTools) at 1:500 dilution” for “3B5H10 binds to diffuse mHTT. Diffuse mHTT is a monomeric”, “Guinea Pig anti-MAP2 polyclonal antibody (Synaptic Systems) at 1:500 dilution.” for “small oligomeric mHTT. Diffuse mHTT is correlated to pathological parameters in Huntington's disease. Compounds that bind the mHTT will reduce the levels of diffuse mHTT detected.”\nCells were washed 2 times with 4 °C PBS, and then incubated with secondary antibodies at 1:2000 dilution in blocking buffer for 1hour at room temperature. […] Cells were washed 2 times with 4 °C PBS, and then the nuclei were counterstain with DAPI (ThermoFisher) for 10 min at room temperature in the dark. Cells were washed 2 times with 4 °C PBS, and then 4 °C PBS was added to cells and then images were acquired.\nEC 50 value was determined with non-linear regression."}, "Log D": {"assay": "Log D", "assay_type": "physicochemical", "settings": "pH 7.4; pH 7,4"}, "Thermodynamic solubility": {"assay": "Thermodynamic solubility", "assay_type": "physicochemical", "settings": "thermodynamic from solid"}, "wildtype huntingtin": {"molecular_target": "T2, wildtype huntingtin (Mus musculus, UniProt P42859)", "T2 construct": "host or cells: ST HDH Q7/7 mouse striatal cell line", "assay": "Wildtype huntingtin levels (immunofluorescence)", "assay_type": "cell-based", "settings": "STHdh 7/7 in comparison to non-treated STHdh 7/7"}}, "note": "“And” between values parts separate entries of the source, which are not always exact repeats. Equal values may be shown once."}
{"smiles": "CCc1c(C)[nH]c2ccc(C(=O)NCCN(CC)CC)cc12", "note": "[Compound 4, N-(2-(diethylamino)ethyl)-3-ethyl-2-methyl-1H-indole-5-carboxamide]", "values": [{"measurement": "Kd", "setting": "Exon1 Q46; Exon1 Q46", "result": 0.06, "unit": "µM"}, {"measurement": "Fraction Helix fH", "setting": "Exon1 Q46; Exon1 Q46, conc. Compound 0.01 µM", "result": 22.4, "unit": "%"}, {"measurement": "Fraction Helix fH", "setting": "Exon1 Q46; Exon1 Q46, conc. Compound 0.059 µM", "result": 20.9, "unit": "%"}, {"measurement": "Fraction Helix fH", "setting": "Exon1 Q46; Exon1 Q46, conc. Compound 0.158 µM", "result": 21.1, "unit": "%"}, {"measurement": "Fraction Helix fH", "setting": "Exon1 Q46; Exon1 Q46, conc. Compound 0.647 µM", "result": 20.0, "unit": "%"}, {"measurement": "Fraction Helix fH", "setting": "Exon1 Q46; Exon1 Q46, conc. Compound 1.62 µM", "result": 19.5, "unit": "%"}, {"measurement": "Fraction Helix fH", "setting": "Exon1 Q46; Exon1 Q46, conc. Compound 4.04 µM", "result": 19.3, "unit": "%"}, {"measurement": "Fraction Helix fH", "setting": "Exon1 Q46; Exon1 Q46, conc. Compound 13.68 µM", "result": 18.3, "unit": "%"}, {"measurement": "Fraction Helix fH", "setting": "Exon1 Q46; Exon1 Q46, conc. Compound 37.77 µM", "result": 18.1, "unit": "%"}, {"measurement": "Kd", "setting": "Exon1 Q46; Exon1 Q46 protein", "result": 0.06, "unit": "µM"}, {"measurement": "solubility kinetic", "setting": "Kinetic solubility", "result": 328, "unit": "µM"}, {"measurement": "mHTT after 3 h heat shock and following 48 hours of compound treatment in comparison to untreated STHdh 111/111", "setting": "mHTT", "result": 34, "unit": "%"}, {"measurement": "remaining activity at 10 µM", "setting": "mHTT", "result": 34, "unit": "%"}, {"measurement": "Diffuse mHTT reduction", "setting": "mHTT; STHdh 111/111 in comparison to untreated cells, p < 0.0001", "result": 68, "unit": "%"}, {"measurement": "logD", "setting": "Log D", "result": 2.02}, {"measurement": "solubility thermodynamic", "setting": "Thermodynamic solubility", "result": 5100, "unit": "µM"}, {"measurement": "wildtype huntingtin level", "setting": "wildtype huntingtin", "result": "not reduced"}]}
{"smiles": "Cc1[nH]c2ccc(C(=O)NCCN(C(C)C)C(C)C)cc2c1C", "note": "[Compound 22]", "values": [{"measurement": "proportion of a predominantly α-helical state of Exon1 Q46 after treatment", "setting": "Exon1 Q46; 2 µM", "result": 21.4, "unit": "%"}, {"measurement": "Reduction of the proportion of a predominantly α-helical state to wildtype levels", "setting": "Exon1 Q46; 2 µM compound exposure", "result": "36.7% and 36.6%"}, {"measurement": "Kd", "setting": "Exon1 Q46; Exon1 Q46", "result": 0.7, "unit": "µM"}, {"measurement": "Kd", "setting": "Exon1 Q46; Exon1 Q46 protein", "result": 0.701, "unit": "µM"}, {"measurement": "solubility kinetic", "setting": "Kinetic solubility", "result": 188, "unit": "µM"}, {"measurement": "mHTT after 3 h heat shock and following 48 hours of compound treatment in comparison to untreated STHdh 111/111", "setting": "mHTT", "result": 46, "unit": "%"}, {"measurement": "remaining activity at 10 µM", "setting": "mHTT", "result": 46, "unit": "%"}, {"measurement": "mHTT lowering with autophagy inhibitor", "setting": "mHTT; STHdh 111/111 exposed to 10 mM NH4Cl", "result": "blocked the mHTT lowering effects of Compound 22 completely"}, {"measurement": "Nuclear diffuse mHTT reduction", "setting": "mHTT; STHdh 111/111 in comparison to untreated cells, p = 0.02", "result": 32, "unit": "%"}, {"measurement": "logD", "setting": "Log D", "result": 1.21}, {"measurement": "solubility thermodynamic", "setting": "Thermodynamic solubility", "result": 2100, "unit": "µM"}, {"measurement": "wildtype huntingtin level", "setting": "wildtype huntingtin", "result": "not reduced"}]}
